The results in this text go back to patent publication EP0238905B1, “4-(2-pyrimidinyl)-1-piperazinyl heterocyclic carbonyl derivatives” (MERRELL DOW PHARMACEUTICALS INC., priority 1986, dated 1987).

This test concerns the target T1, 5-HT1A recognition sites (Rattus norvegicus, UniProt P19327).
T1 construct: Tissues from 4-8 rats are pooled and homogenized in 70 vol Tris-HCl buffer; from tissue; host or cells: Sprague-Dawley rat frontal cortex membrane homogenate
T1 sequence (P19327 1-422): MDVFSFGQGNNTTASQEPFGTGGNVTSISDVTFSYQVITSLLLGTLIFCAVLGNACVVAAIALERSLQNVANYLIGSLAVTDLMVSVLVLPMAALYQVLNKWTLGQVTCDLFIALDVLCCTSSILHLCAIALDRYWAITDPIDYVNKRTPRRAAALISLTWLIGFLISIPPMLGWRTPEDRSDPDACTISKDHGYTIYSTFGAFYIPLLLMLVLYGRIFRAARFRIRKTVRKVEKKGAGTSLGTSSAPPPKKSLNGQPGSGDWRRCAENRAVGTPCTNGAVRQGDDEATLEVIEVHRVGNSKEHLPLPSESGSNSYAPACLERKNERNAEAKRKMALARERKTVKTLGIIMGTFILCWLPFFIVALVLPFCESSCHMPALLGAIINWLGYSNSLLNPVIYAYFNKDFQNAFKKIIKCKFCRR
The experiment in a line: In vitro 5-HT1A radioligand binding ([³H]-8-OH-DPAT). Conditions: rat frontal cortex homogenate; radioligand [³H]-8-OH-DPAT; 37°C for 15 min; results expressed as pIC₅₀; read-out: 5-HT1A Binding Affinity Rat Brain cortex (converted). More on the design: species or system Sprague-Dawley rat. Here is the method:
Radioligand binding studies of the 5-HT1A recognition sites are conducted in the following manner.
Radioactivity is measured following extraction into Aquasol-Z (NEN) at an efficiency of 45-50%.

In the case of `CC1(C)CC(=O)OC(=NCCCCN2CCN(c3ncccn3)CC2)N1` [Compound B, 2-[4-[4-(2-pyrimidinyl)-1-piperazinyl]butylimino]-tetrahydro-4,4-dimethyl-6H-1,3-oxazine-6-one], the IC50 was 479 nM.
